# Assay results reported in publication PMC6222828, “Synthesis of Gemcitabine-Threonine Amide Prodrug Effective on Pancreatic Cancer Cells with Improved Pharmacokinetic Properties” (Molecules : A Journal of Synthetic Chemistry and Natural …, 2018).
# “Also recorded” adds a separate entry of the source. Like-named read-outs stand apart in the source and are kept apart here.
# Key:
# [1] = parameters: method as in PMID 19860433; conditions: cited from earlier work
# [2] = Systemic (intravenous) pharmacokinetics in rats; assay type: in vivo, rat; conditions: 4 mg/kg i.v.
# Experimental: This study was performed in male Sprague-Dawley (SD) rats (Orient Bio, Sungnam, Korea), as described previously. Rats were provided water and food ad libitum and maintained under a 12:12-h light/dark cycle. On the experimental day, a femoral vein and contralateral artery were cannulated using an Intramedic™ polyethylene tube (PE-50; Becton Dickinson Diagnostics, Sparks, MD, USA) under Zoletil induced anesthesia (50 mg/kg intramuscularly; Virbac, Carros, France). For the intravenous pharmacokinetic study, Gem-Thr or gemcitabine solution were injected into a femoral vein at 4 mg/kg. Blood (~0.22 mL) was taken from the femoral artery at 0 (blank), 1, 5, 15, 30, 60, 120, 240, 480, 720, or 1440 min. To prevent blood loss, the same volume of normal saline was injected intravenously at each time point. Plasma was obtained immediately centrifugation and then stored at −80 °C prior to LC-MS/MS.
# The pharmacokinetic parameters of Gem-Thr, gemcitabine, Gem-Thr plus gemcitabine, and free gemcitabine were calculated by non-compartmental analysis using WinNonlin (Version 3.1; Pharsight, Mountain View, CA, USA), as described previously (Park et al., 2016).
# To determine concentrations of Gem-Thr and gemcitabine in rat plasma, plasma samples were deproteinized by adding two volumes of acetonitrile containing internal standard (phenacetin). After mixing, mixtures were centrifuged at 14,000× g for 10 min.
# Aliquots of supernatants (2-µL) were injected into the LC-MS/MS system, which consisted of an Agilent HPLC and an Agilent 6490 QQQ mass spectrometer equipped with an ESI+ Agilent Jet Stream ion source (Agilent Technologies, Santa Clara, CA, USA). The separation of each drug and IS from endogenous plasma substances was achieved on a Synergi Polar-RP 80A column (150 × 2.0 mm, 4 μm; Phenomenex, Torrance, CA, USA). The mobile phase consisted of 0.1% formic acid and acetonitrile (20:80, v/v) at a flow rate of 0.2 mL/min. The column and autosampler tray were maintained at 25 and 4 °C, respectively. Gemcitabine, Gem-Thr, and the IS were quantified by multiple-reaction monitoring (MRM) in positive electrospray ionization mode. Respective precursor-to-product ion transitions were as follows: Gemcitabine, 264.1→112.1, Gem-Thr, 387.1→343.2, and IS (phenacetin), 180.2→162.2. Data acquisition was performed using Mass Hunter software (ver. A.02.00; Agilent Technologies).
# BxPC-3 cells [3] = assay: MTT cytotoxicity assay in BxPC-3 cells; assay type: cell-based, Human; conditions: 48 h
# Experimental: (§1) Figure 3 Growth-inhibitory effects of gemcitabine and of its amino-acid-conjugated derivatives on BxPC-3, MIAPaCa-2, A549, MDA-MB-231 B16 cells after exposure to 1 μM concentrations for 48 h, as estimated by MTT assay (mean ± SD, n = 3). Experiments were performed three times independently. * p < 0.05, compared with free gemcitabine group.
# (§2) Human pancreatic cancer cells (MIAPaCa-2, BxPC-3 and AsPC-1), lung cancer cell lines (A549), human breast cancer cell lines (MDA-MB-231) and melanoma cell lines (B16) were purchased from the American Type Culture Collection (Manassas, VA, USA). MIAPaCa-2 and B16-F10 cells were cultured in Dulbecco’s modified Eagle’s medium (DMEM) supplemented with 10% heat-inactivated fetal bovine serum (FBS) and 1% penicillin/streptomycin. Aspc-1, BxPC-3 MDA-MB-231 and A549 cells were cultured in Roswell Park Memorial Institute 1640 (RPMI-1640) medium supplemented with 10% FBS and 1% penicillin/streptomycin. FBS and all other reagents used for cell culture were purchased from Invitrogen (Carlsbad, CA, USA). Cultures were maintained at 37 °C in 95% air /5% CO2 humidified atmosphere.
# Cancer cell viabilities after treatment with gemcitabine or its derivatives were quantified using MTT assay as described previously. Briefly, cells were seeded onto 96-well plates at 3 × 10^3 cells per well and incubated at 37 °C. The cells were treated with each compound at indicated concentrations for 48 h and then, 20 μL of MTT labeling mixture was added to each well. After incubation for 4 h, optical densities (OD) were determined using a microplate reader by measuring absorbances at 540 nm.
# MIAPaCa-2 cells = assay: MTT cytotoxicity assay in MIAPaCa-2 cells; assay type: cell-based, Human; conditions: 1 μM, 48 h
# Experimental: as §1, §2
# (§3) Cancer cell viabilities after treatment with gemcitabine or its derivatives were quantified using MTT assay as described previously. […] After incubation for 4 h, optical densities (OD) were determined using a microplate reader by measuring absorbances at 540 nm.
# B16 (melanoma cells) = assay: MTT cytotoxicity assay in B16 cells; assay type: cell-based; conditions: 1 μM, 48 h
# Experimental: Human pancreatic cancer cells (MIAPaCa-2, BxPC-3 and AsPC-1) [21], lung cancer cell lines (A549) [22], human breast cancer cell lines (MDA-MB-231) [23] and melanoma cell lines (B16) [24] were purchased from the American Type Culture Collection (Manassas, VA, USA). MIAPaCa-2 and B16-F10 cells were cultured in Dulbecco’s modified Eagle’s medium (DMEM) supplemented with 10% heat-inactivated fetal bovine serum (FBS) and 1% penicillin/streptomycin. Aspc-1, BxPC-3 MDA-MB-231 and A549 cells were cultured in Roswell Park Memorial Institute 1640 (RPMI-1640) medium supplemented with 10% FBS and 1% penicillin/streptomycin. […] Cultures were maintained at 37 °C in 95% air /5% CO2 humidified atmosphere.
# Cancer cell viabilities after treatment with gemcitabine or its derivatives were quantified using MTT assay as described previously [25]. Briefly, cells were seeded onto 96-well plates at 3 × 10^3 cells per well and incubated at 37 °C. The cells were treated with each compound at indicated concentrations for 48 h and then, 20 μL of MTT labeling mixture was added to each well. After incubation for 4 h, optical densities (OD) were determined using a microplate reader by measuring absorbances at 540 nm.
# BxPC-3 cells [4] = assay: Apoptosis: cleaved PARP western blot and TUNEL assay; assay type: cell-based, Human; conditions: 1 µM, 24 h treatment
# Experimental: BxPC-3 cells were washed with DPBS and lysed with RIPA buffer (Biosesang, Seongnam, Korea) containing 150 mM NaCl, 1% Triton X-100, 1% sodium deoxycholate, 0.1% SDS, 50 mM Tris-HCl (pH 7.5), 2 mM EDTA (pH 8.0), and Xpert protease inhibitor and phosphatase inhibitor Cocktail (GenDEPOT, Barker, TX, USA). Proteins were separated by 8% or 15% SDS-PAGE (sodium dodecylsulfate-polyacrylamide gel electrophoresis) and transferred to polyvinylidene fluoride (PVDF) membranes. […] Antibody binding was detected using an enhanced chemiluminescence (ECL) reagent (Bio-Rad, Hercules, CA, USA) using primary antibodies specific to proteins of interest, and proteins were detected using X-ray film and enhanced chemiluminescence reagent. Primary antibodies against the following were used: LAT-1, cleaved PARP (Cell Signaling Technologies, Beverly, MA, USA), GAPDH (Abcam, Cambridge, MA, USA), and β-actin (Sigma Aldrich, St. Louis, MO, USA). Secondary antibodies were purchased from Cell signaling technology.
# TUNEL assay was conducted with the ApopTag® Peroxidase In Situ Apoptosis Detection Kit (Merck Millipore, Burlington, MA, USA). Briefly, BxPC-3 cells were seeded onto 18-mm cover glasses in medium and grown to ~70% confluence over 24 h.
# [5] = test system: MDA-MB-231 (breast cancer cells); assay: MTT cytotoxicity assay in MDA-MB-231 cells; assay type: cell-based, human; conditions: 1 μM, 48 h
# Experimental: as §1, §2, §3
# [6] = parameters: method as in PMID 18519786; conditions: in man; cited from earlier work
# A549 (lung cancer cells) = assay: MTT cytotoxicity assay in A549 cells; assay type: cell-based; conditions: 1 μM, 48 h
# Experimental: as §1, §2, §3
# [7] = 37 °C
# Experimental: The metabolic stability of Gem-Thr was examined in the presence of PBS (pH 7.4), rat plasma, or liver microsomes as described previously (Maeng et al., 2014). Fresh rat plasma was obtained from sacrificed SD rats (260–280 g) after centrifuging blood (12,000× g, 15 min). Rat liver microsomes were obtained from BD Gentest. Gem-Thr (10 µM) was spiked into PBS, blank rat plasma, or liver microsomes (1 mg protein/mL) and incubated in a shaking water bath at 37 °C for 8 h. Aliquots (50-µL) were taken after 0, 15, 30, 60, 120, 240, […], or 480 min of incubation, immediately pretreated with ice-cold methanolic solution including the internal standard, vortexed for 3 min and centrifuged (12,000× g, 10 min). Supernatants were stored at −80 °C until required for analysis.
# [8] = analyte = administered compound
smiles,measurement,setting,value
"Nc1ccn([C@@H]2O[C@H](CO)[C@@H](O)C2(F)F)c(=O)n1 [gemcitabine, 2′-2′-difluorodeoxycytidine]",oral bioavailability (BA),[1],low oral bioavailability
same,clearance,"[2]; male, Sprague-Dawley, rat, plasma, iv, analyte = administered compound",4.23 ± 0.23 mL/min/kg
same,AUC,"[2]; male, Sprague-Dawley, rat, plasma, iv, analyte = administered compound, read-out: AUC (converted)",15800 ng·h/mL
same,MRT,"[2]; male, Sprague-Dawley, rat, plasma, iv, analyte = administered compound, read-out: MRT (converted)",9.7 h
same,half-life,"[2]; male, Sprague-Dawley, rat, plasma, iv, analyte = administered compound, read-out: Terminal t1/2",8.88 ± 2.96 h
same,Vd,"[2]; male, Sprague-Dawley, rat, plasma, iv, analyte = administered compound, read-out: Vss",2.48 ± 0.867 L/kg
same,anti-cancer effect (cytotoxicity),BxPC-3 cells [3]; 1 μM,significant anti-cancer effects
same,viability at 1 µM,"BxPC-3 cells [3]; Homo sapiens, read-out: cell viability",54.1%
same,anti-cancer effect (cytotoxicity),MIAPaCa-2 cells,significant anti-cancer effects
same,anti-cancer effect (cytotoxicity),B16 (melanoma cells),significant anti-cancer effects
same,"apoptosis (cleaved PARP, TUNEL positive cells)",BxPC-3 cells [4],induced apoptosis significantly
same,anti-cancer effect versus vehicle treated controls,[5],neither gemcitabine nor gemcitabine derivatives had any significant anti-cancer effect
same,half-life,[6],9 min
same,anti-cancer effect versus vehicle treated controls,A549 (lung cancer cells),neither gemcitabine nor gemcitabine derivatives had any significant anti-cancer effect
"C[C@@H](O)[C@H](N)C(=O)Nc1ccn([C@@H]2O[C@H](CO)[C@@H](O)C2(F)F)c(=O)n1 [Gem-Thr, (2S,3R)-2-Amino-N-(1-((2R,4R,5R)-3,3-difluoro-4-hydroxy-5-(hydroxylmethyl)tetra-hydrofuran-2-yl)-2-oxo-1,2-dihydropyrimidin-4-yl)-3-hydroxybutanamide2-(4-((pyridin-3-ylmethyl)amino)quinazolin-2-yl)phenol]",AUC of sum of Gem-Thr and gemcitabine (metabolite) versus gemcitabine alone,[2],3.62 fold
same,AUC,[2]; [8],28564.2 ± 18040 ng·h/mL
same,CL,[2]; [8],2.85 ± 1.33 mL/min/kg
same,MRT,[2]; [8],3.953 ± 0.3478 h
same,Terminal t1/2,[2]; [8],3.9363 ± 0.849 h
same,Vss,[2]; [8],0.66235 ± 0.2814 L/kg
same,increase of systemic exposure (AUC of gemcitabine) versus free gemcitabine,[2]; formed gemcitabine vs free gemcitabine,1.83 fold
same,anti-cancer effect (cytotoxicity),BxPC-3 cells [3]; 1 μM,most potent anticancer effect; also recorded: more effective than free gemcitabine
same,cell viability,BxPC-3 cells [3]; 1 μM,44.7%
same,anti-cancer effect (cytotoxicity),MIAPaCa-2 cells,most potent anticancer effect; also recorded: more effective than free gemcitabine
same,fraction of Gem-Thr metabolized in rat plasma,"[7]; 10 µM, after 8 h",20%
same,metabolic stability in rat plasma,"[7]; 10 µM, up to 8 h",metabolically stable
same,stability in PBS,"[7]; PBS pH 7.4, 10 µM, up to 8 h",metabolically stable
same,metabolic stability in rat liver microsomal fractions,"[7]; rat liver microsomes 1 mg protein/mL, 10 µM, up to 8 h",metabolically stable
same,"apoptosis (cleaved PARP, TUNEL positive cells)",BxPC-3 cells [4],induced apoptosis significantly
